Data from patent US20050009840A1 (SUGEN, INC., priority 2003, published 2005).
pIC50: −log10 of the molar value.

Molecular target: T1, HGFR (Homo sapiens, UniProt P08581)
T1 construct: purchased Upstate 14-526
Assay: HGFR continuous-coupled spectrophotometric assay
Format: biochemical
Conditions: Table 3, column 'Ki (μM) or I (%)': cells without % sign; read-out: Ki

T1 sequence (P08581 974-1390 limits assumed): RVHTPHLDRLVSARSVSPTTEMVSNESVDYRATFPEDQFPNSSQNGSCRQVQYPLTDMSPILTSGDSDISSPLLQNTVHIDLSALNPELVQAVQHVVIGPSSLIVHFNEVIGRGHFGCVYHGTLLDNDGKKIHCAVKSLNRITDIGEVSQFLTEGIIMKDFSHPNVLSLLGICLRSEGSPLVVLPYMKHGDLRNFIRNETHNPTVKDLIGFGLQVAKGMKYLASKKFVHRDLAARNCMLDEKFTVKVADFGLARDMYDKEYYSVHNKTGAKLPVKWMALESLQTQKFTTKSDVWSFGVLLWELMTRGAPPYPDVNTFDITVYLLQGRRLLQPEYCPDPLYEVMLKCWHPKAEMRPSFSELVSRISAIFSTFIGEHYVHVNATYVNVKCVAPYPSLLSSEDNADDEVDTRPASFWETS

| Compound | Ki [µM] |
| --- | --- |
| (4-{6-Amino-5-[1-(2,6- dichloro-3-fluoro-phenyl)- ethoxy]-pyridin-3-yl}- phenyl)-(4-ethyl-piperizin- 1-yl)-methanone [Example I-633] | 0.0472 |

Same assay, conditions: at 1 pM; Table 6, library procedure 41; read-out: % Inhibition (percent c-MET inhibition)

| Compound | inhibition at 1 pM [%] |
| --- | --- |
| CC(C)CCNC(=O)C1CC12CCN(C(=O)c1cnc(N)c(OCc3c(Cl)cccc3Cl)c1)CC2 [Example L-338] | 21 |
| Cc1cc(CCC2CC3(CCN(C(=O)c4cnc(N)c(OCc5c(Cl)cccc5Cl)c4)CC3)CO2)no1 [Example L-340] | 19 |
| CCc1ccc(COCC2CCN(C(=O)c3cnc(N)c(OCc4c(Cl)cccc4Cl)c3)CC2)nc1 [Example L-344] | 41 |
| Cc1ccn2cc(CNC(=O)c3cnc(N)c(OCc4c(Cl)cccc4Cl)c3)nc2n1 [Example L-345] | 45 |
| Nc1ncc(C(=O)N2CCn3c(CO)nnc3C2)cc1OCc1c(Cl)cccc1Cl [Example L-346] | 31 |
| Nc1ncc(C(=O)N2CCC3(CC2)COC(CCc2cc(O)n[nH]2)C3)cc1OCc1c(Cl)cccc1Cl [Example L-350] | 34 |

Further lines, results first:

| inhibition at 1 pM [%] | Compound |
| --- | --- |
| 18 | Nc1ncc(C(=O)N2CCCC(N3CCOCC3)CC2)cc1OCc1c(Cl)cccc1Cl [Example L-335] |
| 20 | Nc1ncc(C(=O)NC2COC3(CCN(Cc4ccncc4)CC3)C2)cc1OCc1c(Cl)cccc1Cl [Example L-336] |
| 20 | Nc1ncc(C(=O)N2CCC(O)(CN3CCCC3=O)C2)cc1OCc1c(Cl)cccc1Cl [Example L-337] |
| 18 | CN(CCc1ccccn1)CC1(O)CCN(C(=O)c2cnc(N)c(OCc3c(Cl)cccc3Cl)c2)C1 [Example L-339] |
| 20 | Nc1ncc(C(=O)N2CCCC(N3CCC(CO)CC3)CC2)cc1OCc1c(Cl)cccc1Cl [Example L-341] |
| 36 | Nc1ncc(C(=O)N2CCCC(O)(COc3cccc(F)c3)C2)cc1OCc1c(Cl)cccc1Cl [Example L-342] |
| 37 | Nc1ncc(C(=O)N2CCC3(CC2)COC(CCc2ccnnc2)C3)cc1OCc1c(Cl)cccc1Cl [Example L-343] |
| 38 | Cc1ccc2nc(CNC(=O)c3cnc(N)c(OCc4c(Cl)cccc4Cl)c3)cn2c1 [Example L-347] |
| 35 | Nc1ncc(C(=O)N2CCC(COc3cccc4cccnc34)C2)cc1OCc1c(Cl)cccc1Cl [Example L-348] |
| 32 | Nc1ncc(C(=O)N2CCC3(CC2)CC3C(=O)NCC2CC2)cc1OCc1c(Cl)cccc1Cl [Example L-349] |
| 35 | Cn1ccnc1SCC1(O)CCCN(C(=O)c2cnc(N)c(OCc3c(Cl)cccc3Cl)c2)CC1 [Example L-351] |
| 47 | CC(C)CNC(=O)c1ccc(Cl)c(CNC(=O)c2cnc(N)c(OCc3c(Cl)cccc3Cl)c2)c1 [Example L-352] |

Molecular target: T2, Met kinase domain (GST fusion protein) (Homo sapiens, UniProt P08581)
T2 construct: Purified GST fusion protein containing the Met kinase domain
Assay: Met transphosphorylation assay (ELISA, poly(glu-tyr) substrate);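 note: Cell-free ELISA with plate-bound poly(Glu:Tyr 4:1) phosphorylated by GST-fused Met kinase domain plus ATP and Mn2+, phosphotyrosine detected by anti-phosphotyrosine antibody with HRP and ABTS read-out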
Format: biochemical
Conditions: Table 2; read-out: Met IC50

T2 sequence (P08581 1078-1345 limits assumed): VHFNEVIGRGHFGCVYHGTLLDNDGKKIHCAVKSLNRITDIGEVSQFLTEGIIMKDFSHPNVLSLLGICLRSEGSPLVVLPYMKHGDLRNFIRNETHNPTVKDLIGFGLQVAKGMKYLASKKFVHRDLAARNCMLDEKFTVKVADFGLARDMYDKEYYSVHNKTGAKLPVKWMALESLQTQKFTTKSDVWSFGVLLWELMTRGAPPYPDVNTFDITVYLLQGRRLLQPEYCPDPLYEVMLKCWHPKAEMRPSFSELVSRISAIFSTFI

| Compound | pIC50 |
| --- | --- |
| CN(C)C1CCN(C(=O)c2ccc(-c3cnc(N)c(OCc4ccc(C(C)(C)C)cc4)c3)cc2)C1 (stereo in doubt) [Example I-196, {4-[6-Amino-5-(4-tert-butyl-benzyloxy)-pyridin-3-yl]-phenyl}-[(3R)-3-dimethylamino-pyrrolidin-1-yl]-methanone] | 5.37 |

Same assay, conditions: read-out: Met IC50

| Compound | pIC50 |
| --- | --- |
| Nc1ncc(-c2cccc(NS(=O)(=O)CCN3CCCC3CO)c2)nc1OCc1c(F)ccc(F)c1Cl (stereo not shown) | 5.86 |
| Nc1ncc(-c2cccc3[nH]ccc23)cc1OCc1c(Cl)cccc1-c1cccc2[nH]ccc12 [Example I-5, 3-[2-Chloro-6-(1H-indol-4-yl)-benzyloxy]-5-(1H-indol-4-yl)-pyridin-2-ylamine] | 5.33 |
| Nc1ncc(-c2ccc(F)cc2)cc1OCc1c(Cl)cccc1Cl [Example I-8, 3-(2,6-Dichloro-benzyloxy)-5-(4-fluoro-phenyl)-pyridin-2-ylamine] | 5.10 |
| Nc1ncc(-c2cccc(F)c2)cc1OCc1c(Cl)cccc1Cl [Example I-11, 3-(2,6-Dichloro-benzyloxy)-5-(3-fluoro-phenyl)-pyridin-2-ylamine] | 4.86 |
| Nc1ccc(-c2cnc(N)c(OCc3c(Cl)cccc3Cl)c2)cc1 [Example I-12, 5-(4-Amino-phenyl)-3-(2,6-dichloro-benzyloxy)-pyridin-2-ylamine] | 6.22 |
| COc1ccc(-c2cnc(N)c(OCc3c(Cl)cccc3Cl)c2)cc1 [Example I-16, 3-(2,6-Dichloro-benzyloxy)-5-(4-methoxy-phenyl)-pyridin-2-ylamine] | 5.18 |
| Nc1ncc(-c2cccc(OC(F)(F)F)c2)cc1OCc1c(Cl)cccc1Cl [Example I-18, 3-(2,6-Dichloro-benzyloxy)- -5-(3-trifluoromethoxy-phenyl)-pyridin-2-ylamine] | < 4.70 |
| Nc1ncc(-c2ccccc2Oc2ccccc2)cc1OCc1c(Cl)cccc1Cl [Example I-20, 3-(2,6-Dichloro-benzyloxy)-5-(2-phenoxy-phenyl)-pyridin-2-ylamine] | < 4.70 |
| Nc1ncc(-c2ccc(F)c(F)c2)cc1OCc1c(Cl)cccc1Cl [Example I-21, 3-(2,6-Dichloro-benzyloxy)-5-(3,4-difluoro-phenyl)-pyridin-2-ylamine] | 4.84 |
| CC(C)c1cccc(-c2cnc(N)c(OCc3c(Cl)cccc3Cl)c2)c1 [Example I-22, 3-(2,6-Dichloro-benzyloxy)-5-(3-isopropyl-phenyl)-pyridin-2-ylamine] | 4.80 |
| Nc1ncc(-c2ccccc2C(F)(F)F)cc1OCc1c(Cl)cccc1Cl [Example I-23, 3-(2,6-Dichloro-benzyloxy)-5-(2-trifluoromethyl-phenyl)-pyridin-2-ylamine] | < 4.70 |
| COc1ccccc1-c1cnc(N)c(OCc2c(Cl)cccc2Cl)c1 [Example I-24, 3-(2,6-Dichloro-benzyloxy)-5-(2-methoxy-phenyl)-pyridin-2-ylamine] | 4.94 |
| CS(=O)(=O)Nc1ccccc1-c1cnc(N)c(OCc2c(Cl)cccc2Cl)c1 [Example I-26, N-{2-[6-Amino-5-(2,6-dichloro-benzyloxy)-pyridin-3-yl]-phenyl}-methanesulfonamide] | < 4.70 |
| Nc1ncc(-c2ccc(CO)cc2)cc1OCc1c(Cl)cccc1Cl [Example I-27, {4-[6-Amino-5-(2,6-dichloro-benzyloxy)-pyridin-3-yl]-phenyl}-methanol] | 5.60 |
| Cc1csc(-c2cnc(N)c(OCc3c(Cl)cccc3Cl)c2)c1 [Example I-30, 3-(2,6-Dichloro-benzyloxy)-5-(4-methyl-thiophen-2-yl)-pyridin-2-ylamine] | 5.46 |
| COc1cccc(-c2cnc(N)c(OCc3c(Cl)cccc3Cl)c2)c1 [Example I-32, 3-(2,6-Dichloro-benzyloxy)-5-(3-methoxy-phenyl)-pyridin-2-ylamine] | 5.40 |
| Nc1ncc(-c2cc3ccccc3[nH]2)cc1OCc1c(Cl)cccc1Cl [Example I-33, 3-(2,6-Dichloro-benzyloxy)-5-(1H-indol-2-yl)-pyridin-2-ylamine] | 5.12 |
| Nc1ncc(-c2ccc(C(=O)O)cc2)cc1OCc1c(Cl)cccc1Cl [Example I-35, 4-[6-Amino-5-(2,6-dichloro-benzyloxy)-pyridin-3-yl]-benzoic acid] | 4.89 |

Results, then the compound that gave them:

| pIC50 | Compound |
| --- | --- |
| 6.23 | Nc1ncc(-c2cccc(OCCN3CCOCC3)c2)cc1OCc1c(Cl)cccc1Cl [Example I-3, 3-(2,6-Dichloro-benzyloxy)-5-[3-(2-morpholin-4-yl-ethoxy)-phenyl]-pyridin-2-ylamine] |
| 5.85 | Nc1ncc(-c2cccc3[nH]ccc23)cc1OCc1c(Cl)cccc1Cl [Example I-4, 3-(2,6-Dichloro-benzyloxy)-5-(1H-indol-4-yl)-pyridin-2-ylamine] |
| < 4.70 | CC(C)(C)OC(=O)n1cccc1-c1cnc(N)c(OCc2c(Cl)cccc2Cl)c1 [Example I-6, 2-[6-Amino-5-(2,6-dichloro-benzyloxy)-pyridin-3-yl]-pyrrole-1-carboxylic acid tert-butyl ester] |
| 5.37 | Nc1ncc(-c2ccc[nH]2)cc1OCc1c(Cl)cccc1Cl [Example I-7, 3-(2,6-Dichloro-benzyloxy)-5-(1H-pyrrol-2-yl)-pyridin-2-ylamine] |
| 5.22 | Nc1ncc(-c2ccccc2F)cc1OCc1c(Cl)cccc1Cl [Example I-10, 3-(2 6-Dichloro-benzyloxy)-5-(2-fluoro-phenyl)-pyridin-2-ylamine] |
| 6.36 | CS(=O)(=O)Nc1ccc(-c2cnc(N)c(OCc3c(Cl)cccc3Cl)c2)cc1 [Example I-13, N-{4-[6-Amino-5-(2,6-dichloro-benzyloxy)-pyridin-3-yl]-phenyl}-methanesulfonamide] |
| < 4.70 | CC(=O)Nc1ccc(-c2cnc(N)c(OCc3c(Cl)cccc3Cl)c2)cc1 [Example I-14, N-{4-[6-Amino-5-(2,6-dichloro-benzyloxy)-pyridin-3-yl]-phenyl}-acetamide] |
| 5.87 | Nc1ncc(-c2cccc(O)c2)cc1OCc1c(Cl)cccc1Cl [Example I-15, 3-[6-Amino-5-(2,6-dichloro-benzyloxy)-pyridin-3-yl]-phenol] |
| 5.67 | Nc1ncc(-c2ccccc2O)cc1OCc1c(Cl)cccc1Cl [Example I-19, 2-[6-Amino-5-(2,6-dichloro-benzyloxy)-pyridin-3-yl]-phenol] |
| < 4.70 | Nc1ncc(-c2ccc(C(F)(F)F)cc2)cc1OCc1c(Cl)cccc1Cl [Example I-25] |
| 5.07 | Nc1ncc(-c2ccc3c(c2)OCO3)cc1OCc1c(Cl)cccc1Cl [Example I-28, 5-Benzo[1,3]dioxol-5-yl-3-(2,6-dichloro-benzyloxy)-pyridin-2-ylamine] |
| < 4.70 | Nc1ncc(-c2ccccc2OC(F)(F)F)cc1OCc1c(Cl)cccc1Cl [Example I-29, 3-(2,6-Dichloro-benzyloxy)-5-(2-trifluoromethoxy-phenyl)-pyridin-2-ylamine] |
| < 4.70 | Nc1ncc(-c2ccccc2OCc2ccccc2)cc1OCc1c(Cl)cccc1Cl [Example I-31, 5-(2-Benzyloxy-phenyl)-3-(2,6-dichloro-benzyloxy)-pyridin-2-ylamine] |
| 4.87 | Nc1ncc(-c2ccc(OCc3ccccc3)c(F)c2)cc1OCc1c(Cl)cccc1Cl [Example I-34, 5-(4-Benzyloxy-3-fluoro-phenyl)-3-(2,6-dichloro-benzyloxy)-pyridin-2-ylamine] |
